Patent publication US20210338761A1, “COMPOSITION FOR PREVENTING, AMELIORATING, OR TREATING SLEEP DISTURBANCE COMPRISING EXTRACT OF FRAXINUS SP. PLANT AS EFFECTIVE COMPONENT” (KOREA INSTITUTE OF ORIENTAL MEDICINE, priority 2018, published 2021)

Key:
Format in all cases: in vivo, C57BL/6 mouse
Details in all cases: 15 mg/kg orally for 14 days, foot pad electric shock and restraint stress, cerebral cortex obtained on Day 17
[1] = system: neuropeptide Y mRNA; test: mRNA expression level of neuropeptide Y in cerebral cortex, stress-induced sleep disturbance model (real-time PCR)
Description: (§1) 100 mg/kg extract of Fraxinus rhynchophylla and 15 mg/kg doxepin (Sigma-Aldrich, St. Louis, Mo., USA) were dissolved respectively in PBS to the designated concentration. After aliquoting them according to the required administration amount, it was orally administered in an amount of 0.1 ml for each, one hour before applying stress. To the normal and stress control, PBS was orally administered in an amount of 0.1 ml for each.
(§2) Seven-week old male C57BL/6 mouse with bodyweight of 20 to 22 g was obtained from DBL Co., Ltd. (Eumseong-Gun, Chungcheong-Bukdo, Korea). […]
(§3) Expression pattern of the gene in cerebral cortex, which has been removed from each test animal upon the completion of the test, was determined by real-time PCR. The cerebral cortex tissues of a mouse were treated with RNAzolB (Tel-Test) to extract RNA, and then analyzed by cDNA and real-time PCR instrument using One-step SYBR Green PCR kit (AB science). […] Real time quantitative PCR was carried out by using Applied Biosystems 7500 Real-Time PCR system (Applied Biosystems, USA).
Thereafter, foot pad electric shock and restrain were applied to the mouse and then cerebral cortex was collected by autopsy of the mouse to obtain RNA. cDNA was then prepared and mRNA expression of neuropeptide Y was analyzed by using real-time gene analyzer.

[2] = system: GAD67 (glutamic acid decarboxylase 67) mRNA; test: mRNA expression level of GAD67 in cerebral cortex, stress-induced sleep disturbance model (real-time PCR)
Description: as §1, §2, §3
(§4) Thereafter, foot pad electric shock and restrain were applied to the mouse and then cerebral cortex was collected by autopsy of the mouse to obtain RNA. cDNA was then prepared and mRNA expression level of GAD65 and GAD67 was analyzed by using real-time gene analyzer.

[3] = system: GAD65 (glutamic acid decarboxylase 65) mRNA; test: mRNA expression level of GAD65 in cerebral cortex, stress-induced sleep disturbance model (real-time PCR)
Description: as §1, §2, §3, §4

CN(C)CCC=C1c2ccccc2COc2ccccc21 [doxepin]
mRNA expression level of neuropeptide Y in cerebral cortex compared to the control [1]: increased in statistically significant sense
mRNA expression level of neuropeptide Y in cerebral cortex compared to the control ([1]; listed as positive control): higher expression in significant sense
mRNA expression level of GAD67 in cerebral cortex compared to the control [2]: tend to show higher expression
mRNA expression level of GAD65 in cerebral cortex compared to the control [3]: tend to show higher expression
